Experimental data reported in patent publication US20150352108A1, “AMINO-PYRIMIDINE COMPOUNDS AS INHIBITORS OF TBK1 AND/OR IKK EPSILON” (Alzheimer's Institute of America, priority 2009, published 2015).
pIC50: −log10 of the molar value.

Experiments:
[1] = tested on: IKKε-mediated phosphorylation of IRF3; assay: In-situ phosphorylation of IRF3 (pIRF3 Ser396 ELISA) in HEK293T cells cotransfected with IRF3 and IKKε; assay type: cell-based; details: Homo sapiens, HEK-293T; HEK293T cells, 20 hours, text bins; read-out: IC50 for inhibition of the in-situ IKKε-mediated phosphorylation of IRF3
In short: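 For the IRF3 ELISA, HEK293T cells cotransfected with IRF3 and IKKε were replated at 20,000/well and treated 20 h. Phospho-Ser396 IRF3 was measured by ELISA and normalised to DMSO, with viability checked by CellTiter-Glo. For IRF7, cells transfected with IRF7 and TBK1 were treated overnight, and pSer477/Ser479 IRF7 was detected by Western blot.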

[2] = tested on: TBK1-mediated phosphorylation of IRF7; assay: In-situ TBK1-mediated phosphorylation of IRF7 in HEK293T cells transfected with IRF7 and TBK1 (Western blot); assay type: cell-based
Method: HEK293T cells were cotransfected in a 10-cm dish with IRF3 and IKKε expression plasmids using Lipofectamine 2000 (Invitrogen, Carlsbad, Calif.). The following day, cells were replated at 20,000 per well in 96-well plates and treated with test compounds (compounds according to Formula I) for 20 hours. Cell lysates were prepared and analyzed using an ELISA for phospho-Ser396 (anti-IRF3 capture antibody, Santa Cruz Biotechnology, Inc., Santa Cruz, Calif.; anti-p-Ser396 IRF3 detection antibody, Cell Signaling, Danvers, Mass.). pIRF3 levels in compound treated cells were normalized to DMSO treated cells (no compound). Cell viability was assayed in a parallel set of plates to monitor cytotoxic effects of the test compounds (CellTiter-Glo, Promega, Inc., Madison, Wis.). TBK1 activity was tested by Western blotting using a phospho-specific IRF7 antibody. Similar to above, HEK293T cells were transfected with IRF7 and TBK1 expression plasmids. Cells were seeded in 12-well plates at 150,000 per well and treated overnight with test compounds. Protein lysates were prepared and processed for Western blotting followed by detection using a phosphor-Ser477/Ser479 IRF7 antibody (BD Biosciences, San Jose, Calif.)

[3] = tested on: insulin-stimulated glucose uptake, 3T3-L1 adipocytes; assay: Glucose uptake assay using differentiated 3T3-L1 adipocytes; assay type: cell-based, Murine; details: palmitic acid 48 hours
Method: To determine if IKK/TBK1 inhibitors prevent fatty acid induced insulin resistance in 3T3-L1 adipocytes, insulin-stimulated glucose uptake in the presence of compounds according to Formula I was monitored.
Murine 3T3-L1 cells were differentiated to adipocytes in 96-well plates by incubating for 2 days in adipogenic cocktail (10 ug/ml insulin, 115 ug/ml isobutylmethylxanthine, 1 uM dexamethasone) followed by incubation in insulin-supplemented medium for 2 days and complete media for an additional 5-10 days. Adipocytes were treated with BSA-complexed palmitic acid and a compound according to Formula I for 48 hours. Following free fatty acid treatment, adipoctyes were insulin-deprived in serum-free media for 2 hours. Subsequently, the media was replaced with KRH buffer containing a compound according to Formula I and 300 nM insulin for 15-20 minutes. [^14C]-labeled 2-deoxyglucose was then added for 15 minutes. Cells were thoroughly washed with ice-cold PBS, and intracellular [^14C]-2-deoxyglucose was measured in cell lysates by scintillation.

[4] = tested on: BLyS mRNA, SLE PBMCs; assay: Agonist induced BLyS mRNA in PBMCs from SLE patients (qRT-PCR); assay type: cell-based, human; details: LMW poly(I:C), serial dilutions
Excerpt: To determine if inhibition of IKKε and/or TBK1 modulates nucleic acid agonist induced gene expression, high molecular weight poly(I:C) (MDA5 agonist) and low weight poly(I:C) (RIG-I agonist) were electroporated into human peripheral blood mononuclear cells (PBMCs) obtained from normal donors, or low molecular weight Poly(I:C) was electroporated into PBMCs from donors that have Systemic Lupus Erythematosus (SLE). Induction of IFN-α2, IFN-β, and BLyS mRNA production was monitored by qRT-PCR.
Human PBMCs were collected from healthy donors using routine laboratory procedures. PBMCs from SLE patients were purchased from Astarte Biologics (Redmond, Wash.). The PBMCs were electroporated using Nucleofector® Kit V (Lonza, Walkersville, Md.) with 0.4 ug/mL of high molecular weight poly (I:C) (InvivoGen, San Diego, Calif.) or 0.4 ug/mL low molecular weight poly (I:C) (InvivoGen, San Diego, Calif.) and seeded into wells containing serial dilutions of Example Compound 5 (0.1% final DMSO concentration). […] RNA was quantitated using Quant-iT™ RiboGreen® RNA Assay Kit (Invitrogen, Carlsbad, Calif.). Reverse transcription and real-time PCR were performed using the QuantiTect Probe RT-PCR Kit (Qiagen, Germantown, Md.) and the 7300 Real-Time PCR System (Applied Biosytems, Foster City, Calif.). […]

[5] = tested on: IFN-β production; assay: Inhibition of IFN-β production (similar assay to HFLS-RA RANTES/IP-10); assay type: cell-based; details: Homo sapiens
Method: HFLS cells (HFLS-RA) isolated from patients with rheumatoid arthritis were obtained from Cell Applications, Inc. (San Diego, Calif.). Cells were seeded in synoviocyte growth medium (Cell Applications, Inc., San Diego, Calif.) and allowed to grow overnight. The following day, media was replaced and cells were treated with varying concentrations of selected compounds according to Formula I (e.g., Example Compound 5) (0.1% final DMSO concentration). Two hours later, cells were induced with 50 µg/mL Poly(I:C) (Sigma-Aldrich, St. Louis, Mo.). Supernatants were collected 20 hours post-induction and used to monitor RANTES and IP-10 levels using DuoSet ELISA kits (Human CXCL10/IP-10 DuoSet & Human CCL5/RANTES DuoSet; R&D Systems, Inc., Minneapolis, Minn.).
Using a similar assay Compound 5 was also found to inhibit production of IFN-β with an IC50 of about 40 nM

## N#Cc1cc(-c2ccnc(Nc3ccc(N4CCOCC4)cc3)n2)ccc1OC1CCOCC1 [Example 5, 5-(2-{[4-(Morpholin-4-yl)phenyl]amino}pyrimidin-4-yl)-2-(tetrahydro-2H-pyran-4-yloxy)benzaonitrile]
[1]
  pIC50: > 7.00
[2]
  inhibition of TBK1-mediated phosphorylation of IRF7: inhibit
[3]
  effect on free fatty acid inhibition of insulin-stimulated glucose uptake: reverse the inhibitory effects of free fatty acid on insulin-stimulated glucose uptake
[4]
  induction of BLyS mRNA: potently inhibited
[5]
  pIC50: ~7.40
